Source: PMC4776135, “Small Molecule Inhibition of Ligand-Stimulated RAGE-DIAPH1 Signal Transduction” (Scientific Reports, 2016)

Legend:
[1] = test system: phospho/total Akt in primary murine aortic SMCs; assay: CML-AGE-stimulated Akt phosphorylation, Western blot; format: cell-based; conditions: 1 µM compound, 1.5 h pretreatment; CML-AGE 10 µg/ml 20 min; p < 0.05
Description: (§1) We tested the effects of compounds 1–13 on cellular signaling in primary murine aortic SMCs. […] In primary murine aortic SMCs, we tested the effects of CML-AGE RAGE ligand on Akt and ERK1/2 phosphorylation, as these pathways are seminally linked to fundamental properties of these cells and their responses to stress, such as growth, proliferation, hypertrophy, migration, and survival.
(§2) Figure 3 Effects of compounds 1–13 on RAGE ligand-stimulated phosphorylation of ERK and AKT in primary murine aortic SMCs. Primary murine SMCs were incubated with compounds 1–13 (1 μM) for 1.5 h and then treated with RAGE ligand CML-AGE (10 μg/ml) for 20 minutes. Cells were harvested and total lysates were subjected to Western blotting with antibodies against phospho-ERK and phospho-AKT. Blots were then re-probed with antibodies to total-ERK and total-AKT and relative optical density (ROD) is reported. (a) Quantified levels of phosphorylated/total ERK normalized to total ERK are shown. (b) Quantified levels of phosphorylated/total AKT normalized to total AKT are shown. Assays results shown are representative of three independent experiments. Error bars represent SEM. *indicates p < 0.05 comparing CML-AGE vs. CML-AGE and compound treatment and ^#indicates p < 0.001 comparing CML-AGE vs. serum free medium (SFM) alone vehicle. Above each Western blot, S = serum-free medium and C = CML-AGE; numbers above the blots indicate the compound number.
(§3) Total protein extracts were prepared from primary murine aortic smooth muscle cells using cell lysis buffer (Cell Signaling Technology, Beverly, MA). Equal amounts of protein (30 μg/sample) were subjected to SDS-PAGE (4–12%) followed by electrophoretic transfer to nitrocellulose membranes. Nonspecific binding was blocked by incubation of membranes with BSA (5%) for 1 h. The blot was incubated with one of the following antibodies as the primary antibody for the reaction: anti-phospho-ERK1/2 (P-ERK1/2) IgG, anti-total-ERK1/2 (T-ERK1/2) IgG, anti-phospho-AKT (P-AKT) IgG, and anti-total-AKT (T-AKT) IgG (Cell Signaling Technology). Each primary antibody was used at a dilution of 1:1,000 overnight at 4 °C according to the manufacturer’s instructions. Horseradish peroxidase-conjugated secondary antibodies (1:2,500; Amersham Biosciences) were used to identify sites of binding of each primary antibody.
(§4) Murine vascular SMCs were cultured from the aortas of 10-week old male mice using a modification of the procedure of Travo and Barret[68]. SMCs were cultured following an explant protocol in accordance with institutional guidelines. Wild-type murine aortic vascular SMCs were isolated and used between passages 8 to 12. Human aortic vascular smooth muscle cells were purchased from American Type Culture Collection (ATCC, Manassas, VA) and cultured according to the methods recommended by ATCC. Murine primary aortic endothelial cells were from 6- to 8-week-old wild-type C57BL/6J mice (Jackson Laboratories, Bar Harbor ME) and used under passage 10[69]. THP-1 cells were obtained from the American Type Tissue Collection (ATCC, Manassas VA) and used according to the manufacturer’s instructions.

Tnfa mRNA in kidney = assay: CML-AGE infusion in vivo, kidney Tnfa mRNA; parameters: species or system C57BL/6J mice; conditions: mice; four doses 5 mg/kg i.p. every 12 h; CML-AGE 150 µg i.p.; kidney 4 h later; p < 0.05
Experimental: Next, it was essential to test the ability of the thirteen compounds to block RAGE ligand-mediated inflammation in vivo. […] To test this concept in the present study, we treated wild-type mice with CML-AGE (150 μg) by intraperitoneal injection after pretreatment with four doses of compounds 1–13 (5 mg/kg per dose, 12 h apart). Thirty minutes after the fourth dose of compound, mice were injected with CML-AGE and sacrificed 4 h later. Kidney tissue was retrieved and subjected to real-time quantitative PCR for detection of transcripts encoding inflammatory mediators.
Figure 6 Effect of compounds 1–13 in vivo. (a,b) C57BL/6J mice were subjected to intraperitoneal administration of four doses of compounds 1–13 (5 mg/kg every 12 h) or equal volumes of vehicle (PBS). Thirty minutes after the final injection, mice were injected with CML-AGE (150 μg) by intraperitoneal administration. Four h later, mice were sacrificed and kidney was retrieved. Real time quantitative PCR was performed for detection of Tnfa (a) and Il6 (b). (c) Assessment of compounds on cardiac functional recovery in diabetes. C57BL/6 mice were rendered type 1 diabetic with streptozotocin. After a mean range of 37–45 days of untreated hyperglycemia, mice were sacrificed and hearts rapidly retrieved for assessment of the efficacy of compounds 1–13 (1 μM) or vehicle, DMSO, on left ventricular developed pressure (LVDP) after ischemia. All hearts were subjected to 30 minutes of global ischemia followed by 60 min of reperfusion. Test compounds were introduced 10 minutes prior to the start of ischemia and continued throughout the reperfusion protocol. In (a–c), N = 5–6 mice per group. Error bars represent SEM. In (a–c), *indicates p < 0.05 vs. respective control, and in (a,b), ^#indicates p < 0.001 comparing CML-AGE vs. PBS treatment.
(§5) Total RNA was extracted from cells and tissues using the RNeasy lipid kit (Qiagen, Hilden, Germany). cDNA was synthesized with MultiScribe reverse transcriptase (Applied Biosystems, Foster City, CA). Real-time quantitative PCR was performed using the TaqMan method (50 °C for 2 min, 95 °C for 10 min, and 40 cycles of 95 °C for 15 s and 60 °C for 1 min) with premade primer sets (Applied Biosystems). The relative abundance of transcripts was normalized according to the expression of 18S rRNA (for human cells) or β-actin (for murine cells and tissues) using the ΔΔCt method. Supplementary Table S4 lists the specific primers used in the outlined studies.
Male, wild-type C57BL/6J mice were purchased from the Jackson Laboratories. At age 8 weeks, mice were pretreated with 4 doses of compounds 1–13, 5 mg/kg, by intraperitoneal administration twice daily for a total of two days and four total doses. Control treatment consisted of DMSO diluted into PBS. Thirty minutes after the last dose, CML-AGE (150 μg) was injected by intraperitoneal route. 4 h later, mice were sacrificed and kidney tissue was rapidly retrieved for preparation of mRNA and performance of real time quantitative PCR for the following mRNA transcripts, Tnfa and Il6.

[2] = test system: phospho/total ERK1/2 in primary murine aortic SMCs; assay: CML-AGE-stimulated ERK1/2 phosphorylation, Western blot; format: cell-based; conditions: 1 µM compound, 1.5 h pretreatment; CML-AGE 10 µg/ml 20 min; p < 0.05
Description: as §1, §2, §3, §4

[3] = test system: Il6 mRNA in primary murine aortic endothelial cells (MAECs); assay: CML-AGE-mediated upregulation of Il6 mRNA, real-time quantitative PCR; format: cell-based; conditions: 1 µM compound 1.5 h, CML-AGE 10 µg/ml 6 h
Experimental: First, we tested the effects of RAGE ligand CML-AGE in primary murine aortic endothelial cells (MAECs). […] To assess the effects of the compounds, we pre-treated MAECs for 1.5 h with compounds 1–13 (1 μM).
Figure 5 Effects of compounds 1–13 on RAGE ligand-stimulated inflammatory gene expression in primary murine aortic endothelial cells and human THP-1 cells. Primary murine aortic endothelial cells (a,b) or human THP1 cells (c,d) were subjected to 1.5 h incubation with compounds 1–13 (1 μM) followed by stimulation with CML-AGE (10 μg/ml) for 6 h. Cells were then harvested and gene expression of the inflammatory markers Tnfα and Il6 normalized to β-actin (a,b) or 18s rRNA (c,d) was performed. Assays were performed in triplicate and results are representative of three independent experiments. Error bars represent SEM. *indicates p < 0.05 comparing CML-AGE vs. CML-AGE and compound treatment ^#indicates p < 0.001 comparing CML-AGE vs. SFM vehicle (SFM).
as §5

[4] = test system: diabetic mouse heart (ex vivo); assay: Isolated perfused diabetic heart, ischemia/reperfusion, LVDP recovery; parameters: species or system C57BL/6 mice; conditions: streptozotocin-diabetic mouse hearts ex vivo; 1 µM compound; 30 min ischemia, 60 min reperfusion; p < 0.05
Experimental: Figure 6 Effect of compounds 1–13 in vivo. (a,b) C57BL/6J mice were subjected to intraperitoneal administration of four doses of compounds 1–13 (5 mg/kg every 12 h) or equal volumes of vehicle (PBS). Thirty minutes after the final injection, mice were injected with CML-AGE (150 μg) by intraperitoneal administration. Four h later, mice were sacrificed and kidney was retrieved. Real time quantitative PCR was performed for detection of Tnfa (a) and Il6 (b). (c) Assessment of compounds on cardiac functional recovery in diabetes. C57BL/6 mice were rendered type 1 diabetic with streptozotocin. […]
Finally, we tested the effects of these compounds in settings in which RAGE ligands naturally accumulate, particularly the diabetic heart. […] At the end of reperfusion, we measured left ventricular developed pressure (LVDP) in the hearts, a key measure of functional recovery after injury.
Male C57BL/6 mice, age 8–12 weeks, were purchased from The Jackson Laboratory and rendered diabetic by 55 mg/kg by intraperitoneal route of streptozotocin (STZ) (Sigma Aldrich, St. Louis MO) per day in fresh citrate buffer (0.05 mol/l; pH 4.5) for 5 consecutive days. […] Left ventricular developed pressure (LVDP) was measured using a latex balloon in the left ventricle and monitored continuously on an ADI recorder. […]

Compound | effect on CML-AGE-mediated stimulation of phospho/total-Akt [1] | effect on CML-AGE-mediated upregulation of Tnfa mRNA in kidney (Tnfa mRNA in kidney) | effect on CML-AGE-mediated phospho/total ERK1/2 [2] | effect on CML-AGE-mediated upregulation of Il6 [3] | left ventricular developed pressure (LVDP) functional recovery after ischemia/reperfusion vs DMSO vehicle [4]
C=CCOc1ccc2c(C(F)(F)F)cc(=O)oc2c1 [Compound 2] | significant suppression | significant suppression | significant suppression | significant suppression | –
COc1cc(NC(C)=O)c(Cl)cc1C(=O)Nc1nccs1 [Compound 6] | significant suppression | significant suppression | did not significantly affect | significant suppression | –
Cc1nc2ccccc2n1CC(O)Cn1c2ccccc2c2ccccc21 (centres unmarked) [Compound 3] | significant suppression | significant suppression | significant suppression | significant suppression | statistically-significantly higher LVDP
OC(Cn1ccc2ccccc21)Cn1cnc2ccccc21 (centres unmarked) [Compound 4] | significant suppression | – | significant suppression | significant suppression | –
COC(=O)c1cc(OC)c(OC)cc1NC(=O)C1Oc2ccccc2OC1C (centres unmarked) [Compound 7] | did not significantly suppress | – | did not significantly affect | significant suppression | statistically-significantly higher LVDP
COc1cc(SC)ccc1C(=O)Nc1cccc(C)n1 [Compound 1] | significant suppression | significant suppression | significant suppression | significant suppression | –
Cl.Oc1cccc(Nc2nc(-c3ccc(F)cc3F)cs2)c1 [Compound 5] | did not significantly suppress | significant suppression | significant suppression | significant suppression | –
Cc1ccc(S(=O)(=O)N(C)C(F)F)cc1 [Compound 8] | did not significantly suppress | significant suppression | did not significantly affect | significant suppression | –
